Laboratory results reported in patent US7812036B2, “Androgens” (N.V. Organon, priority 2004, dated 2010).

Biological target: T1, human androgen receptor (Homo sapiens, UniProt P10275)
T1 construct: expressed in transfected cells; host or cells: Chinese hamster ovary (CHO) cells, line CHO-AR-pMMTV-LUC 1G12-A5-CA
T1 sequence (P10275 1-920): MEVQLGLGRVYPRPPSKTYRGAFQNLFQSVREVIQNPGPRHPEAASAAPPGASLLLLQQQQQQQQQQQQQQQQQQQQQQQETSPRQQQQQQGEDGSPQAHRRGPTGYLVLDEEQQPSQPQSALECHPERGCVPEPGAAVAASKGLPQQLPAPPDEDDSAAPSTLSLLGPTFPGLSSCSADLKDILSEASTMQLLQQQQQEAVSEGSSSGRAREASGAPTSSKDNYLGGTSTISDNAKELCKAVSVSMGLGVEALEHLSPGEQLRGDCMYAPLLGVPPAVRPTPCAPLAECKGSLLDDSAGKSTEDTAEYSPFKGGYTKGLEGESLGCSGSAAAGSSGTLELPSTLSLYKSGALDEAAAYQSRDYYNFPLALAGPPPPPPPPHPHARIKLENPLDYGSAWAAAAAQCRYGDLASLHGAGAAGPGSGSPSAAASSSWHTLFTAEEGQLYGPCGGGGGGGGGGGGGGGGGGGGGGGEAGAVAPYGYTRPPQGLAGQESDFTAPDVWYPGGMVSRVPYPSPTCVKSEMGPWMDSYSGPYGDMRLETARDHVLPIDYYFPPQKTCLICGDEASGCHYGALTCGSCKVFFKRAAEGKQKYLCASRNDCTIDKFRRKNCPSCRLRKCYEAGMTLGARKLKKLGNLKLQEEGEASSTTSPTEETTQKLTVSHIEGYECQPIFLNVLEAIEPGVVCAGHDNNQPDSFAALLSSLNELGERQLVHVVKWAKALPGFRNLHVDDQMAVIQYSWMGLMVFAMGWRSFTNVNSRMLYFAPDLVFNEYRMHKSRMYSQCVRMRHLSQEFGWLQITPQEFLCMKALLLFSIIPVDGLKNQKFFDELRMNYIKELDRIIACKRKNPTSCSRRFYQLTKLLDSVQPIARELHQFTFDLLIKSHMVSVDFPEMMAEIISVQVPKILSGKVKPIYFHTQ
Assay: Androgenic activity (potency) in vitro bioassay, CHO-AR-pMMTV-LUC 1G12-A5-CA cells, luciferase reporter
Type: cell-based
Conditions: CHO cells stably transfected with human androgen receptor and MMTV-luciferase reporter; in the presence of 0.1 μmol/l onapristone; potencies expressed as percentage of DHT activity (maximal efficacy with 100 nmol/l DHT set as 100%)
Description: The androgenic activity (potency) of the compounds of the invention was determined in an in vitro bioassay of Chinese hamster ovary (CHO) cells stably transfected with the human androgen receptor expression plasmid and a reporter plasmid in which the MMTV promoter is linked to the luciferase reporter gene. The cell line CHO-AR-pMMTV-LUC 1G12-A5-CA is described in Schoonen et al. (J. Steroid Biochem. Molec. Biol. 2002; 74: 213-222). The androgen receptor activity of compounds was determined in the presence of 0.1 μmol/l onapristone. The maximal efficacy in the presence of 100 nmol/1 DHT was set as 100%. The potencies are expressed as percentage of DHT activity.

SMILES	Potency (%)
CNc1ccc2c(Sc3ccccc3[N+](=O)[O-])cn(Cc3cc(F)cc(F)c3)c2c1 [Example 1]	15.0%
CNc1ccc2c(Sc3ccccc3[N+](=O)[O-])cn(Cc3ccccn3)c2c1 [Example 2, Methyl-[3-(2-nitro-phenylsulfanyl)-1-pyridin-2-ylmethyl-1H-indol-6-yl]-amine]	9.9%
CNc1ccc2c(Sc3ccccc3[N+](=O)[O-])cn(Cc3cccnc3)c2c1 [Example 3, Methyl-[3-(2-nitro-phenylsulfanyl)-1-pyridine-3-ylmethyl-1H-indol-6-yl]-amine]	13.4%
CNc1ccc2c(Sc3ccccc3[N+](=O)[O-])cn(Cc3ccccc3)c2c1 [Example 5a, [1-Benzyl-3-(2-nitro-phenylsulfanyl)-1H-indol-6-yl]-methyl-amine]	9.2%
CNc1ccc2c(Sc3ccccc3[N+](=O)[O-])cn(Cc3ccccc3F)c2c1 [Example 5b]	0.4%
CNc1ccc2c(Sc3ccccc3[N+](=O)[O-])cn(Cc3cccc(F)c3)c2c1 [Example 5c, [1-(3-Fluoro-benzyl)-3-(2-nitro-phenylsulfanyl)-1H-indol-6-yl]-methyl-amine]	13.3%
CNc1ccc2c([S+]([O-])c3ccccc3[N+](=O)[O-])cn(Cc3ccc(F)cc3)c2c1 (stereo not shown) [Example 5d]	4.3%
CNc1ccc2c(Sc3ccccc3[N+](=O)[O-])cn(Cc3ccncc3)c2c1 [Example 5e, Methyl-[3-(2-nitro-phenylsulfanyl)-1-pyridin-4-ylmethyl-1H-indol-6-yl]-amine]	35.1%
CNc1ccc2c(Sc3ccccc3[N+](=O)[O-])cn(Cc3ncccn3)c2c1 [Example 5f, Methyl-[3-(2-nitro-phenylsulfanyl)-1-pyrimidin-2-ylmethyl-1H-indol-6-yl]-amine]	1.8%
CNc1ccc2c(Sc3ccccc3[N+](=O)[O-])cn(Cc3cncnc3)c2c1 [Example 5g, Methyl-[3-(2-nitro-phenylsulfanyl)-1-pyrimidin-5-ylmethyl-1H-indol-6-yl]-amine]	21.6%
CNc1ccc2c(Sc3ccccc3[N+](=O)[O-])cn(Cc3ccco3)c2c1 [Example 5h, [1-Furan-2-ylmethyl-3-(2-nitro-phenylsulfanyl)-1H-indol-6-yl]-methyl-amine]	16.5%
CNc1ccc2c(Sc3ccccc3[N+](=O)[O-])cn(Cc3ccoc3)c2c1 [Example 5i, [1-Furan-3-ylmethyl-3-(2-nitro-phenylsulfanyl)-1H-indol-6-yl]-methyl-amine]	17.9%
CNc1ccc2c(Sc3ccccc3[N+](=O)[O-])cn(Cc3cocn3)c2c1 [Example 5j, Methyl-[3-(2-nitro-phenylsulfanyl)-1-oxazol-4-ylmethyl-1H-indol-6-yl]-amine]	14.8%
CNc1ccc2c(Sc3ccccc3[N+](=O)[O-])cn(Cc3ccon3)c2c1 [Example 5k, [1-Isoxazol-3-ylmethyl-3-(2-nitro-phenylsulfanyl)-1H-indol-6-yl]-methyl-amine]	11.9%
CNc1ccc2c(Sc3ccccc3[N+](=O)[O-])cn(Cc3cscn3)c2c1 [Example 5l, Methyl-[3-(2-nitro-phenylsulfanyl)-1-thiazol-4-ylmethyl-1H-indol-6-yl]-amine]	4.8%
CNc1ccc2c(Sc3ccccc3[N+](=O)[O-])cn(Cc3ncco3)c2c1 [Example 5m, Methyl-[3-(2-nitro-phenylsulfanyl)-1-oxazol-2-ylmethyl-1H-indol-6-yl]-amine]	3.2%
CNc1ccc2c(Sc3ccccc3[N+](=O)[O-])cn(Cc3ccno3)c2c1 [Example 5n, [1-Isoxazol-5-ylmethyl-3-(2-nitro-phenylsulfanyl)-1H-indol-6-yl]-methyl-amine]	19.4%

SMILES	Potency (%)
CNc1ccc2c(Sc3ccccc3[N+](=O)[O-])cn(Cc3cccc(Cl)c3)c2c1 [Example 5p, [1-(3-Chloro-benzyl)-3-(2-nitro-phenylsulfanyl)-1H-indol-6-yl]-methyl-amine]	1.3%
CNc1ccc2c(Sc3ccccc3[N+](=O)[O-])cn(Cc3cccc(C(F)(F)F)c3)c2c1 [Example 5q, Methyl-[3-(2-nitro-phenylsulfanyl)-1-(3-trifluoromethyl-benzyl)-1H-indol-6-yl]-amine]	1.0%
CNc1ccc2c(Sc3ccccc3[N+](=O)[O-])cn(Cc3cccc(C#N)c3)c2c1 [Example 5r, 3-[6-Methylamino-3-(2-nitro-phenylsulfanyl)-1-indol-1-ylmethyl]-benzonitrile]	11.4%
CNc1ccc2c(Sc3ccccc3[N+](=O)[O-])cn(Cc3cc(C#N)cc(C#N)c3)c2c1 [Example 5s, 5-[6-Methylamino-3-(2-nitro-phenylsulfanyl)-indol-1-ylmethyl]-isophthalonitrile]	5.9%
CNc1ccc2c(Sc3ccccc3C#N)cn(Cc3cc(F)cc(F)c3)c2c1 [Example 6]	10.5%
CNc1ccc2c(Sc3ccccc3C#N)cn(Cc3ccccn3)c2c1 [Example 7, 2-(6-Methylamino-1-pyridin-2-ylmethyl-1H-indol-3-ylsulfanyl)-benzonitrile]	1.1%
CNc1ccc2c(Sc3ccccc3C(C)=O)cn(Cc3cc(F)cc(F)c3)c2c1 [Example 8, 1-{2-[1-(3,5-Difluoro-benzyl)-6-methylamino-1H-indol-3-ylsulfanyl]-phenyl}-ethanone]	0.2%
CNc1ccc2c(Sc3ccccc3C(=O)OC)cn(Cc3cc(F)cc(F)c3)c2c1 [Example 9]	0.7%
CNc1ccc2c(Sc3ccccc3CO)cn(Cc3cc(F)cc(F)c3)c2c1 [Example 10]	4.3%
CNc1ccc2c(Sc3ccccn3)cn(Cc3cc(F)cc(F)c3)c2c1 [Example 11, [1-(3,5-Difluoro-benzyl)-3-(pyridin-2-ylsulfanyl)-1H-indol-6-yl]-methyl-amine]	6.6%
CNc1ccc2c(Sc3ncccc3[N+](=O)[O-])cn(Cc3cc(F)cc(F)c3)c2c1 [Example 12, [1-(3,5-Difluoro-benzyl)-3-(3-nitro-pyridin-2-ylsulfanyl)-1H-indol-6-yl]-methyl-amine]	5.7%
CNc1ccc2c(S(=O)(=O)c3ccccc3[N+](=O)[O-])cn(Cc3cc(F)cc(F)c3)c2c1 [Example 13, [1-(3,5-Difluoro-benzyl)-3-(2-nitro-benzenesulfonyl)-1H-indol-6-yl]-methyl-amine]	18.9%
CNc1ccc2c(S(=O)(=O)c3ccccc3[N+](=O)[O-])cn(Cc3ccccn3)c2c1 [Example 14, Methyl-[3-(2-nitro-phenylsulfonyl)-1-pyridin-2-ylmethyl-1H-indol-6-yl]-amine]	1.9%
CN(C)c1ccc2c(Sc3ccccc3[N+](=O)[O-])cn(Cc3cc(F)cc(F)c3)c2c1 [Example 18]	2.7%
CCNc1ccc2c(Sc3ccccc3[N+](=O)[O-])cn(Cc3cc(F)cc(F)c3)c2c1 [Example 19a, [1-(3,5-Difluoro-benzyl)-3-(2-nitro-phenylsulfanyl)-1H-indol-6-yl]-ethyl-amine]	2.7%
C=CCNc1ccc2c(Sc3ccccc3[N+](=O)[O-])cn(Cc3cc(F)cc(F)c3)c2c1 [Example 19b]	2.4%
CN(C)c1ccc2c(Sc3ccccc3[N+](=O)[O-])cn(Cc3ccccn3)c2c1 [Example 19c, Dimethyl-[3-(2-nitro-phenylsulfanyl)-1-pyridin-2-ylmethyl-1H-indol-6-yl]-amine]	1.2%
